{"source": "patent US20230220063A1", "about": "“IL-1BETA BINDING ANTIBODIES FOR USE IN TREATING CANCER” (NOVARTIS AG, priority 2017, published 2023)", "key": {"[1]": {"system": "incident cancers in post-myocardial infarction patients with hsCRP ≥2 mg/L", "test": "CANTOS trial: incident cancers, cancer mortality, canakinumab vs placebo", "assay_type": "in vivo, human"}, "mouse IL-1β": {"target": "mouse IL-1β (Mus musculus, UniProt P10749)", "sequence (P10749 118-269)": "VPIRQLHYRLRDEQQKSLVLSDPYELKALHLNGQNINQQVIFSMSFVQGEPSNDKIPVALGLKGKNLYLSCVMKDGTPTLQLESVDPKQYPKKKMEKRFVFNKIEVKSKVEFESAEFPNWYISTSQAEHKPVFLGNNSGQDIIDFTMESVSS", "test": "Cross-reactivity with mouse IL-1β", "assay_type": "binding", "excerpt": "A mouse surrogate anti-IL-1β antibody has been developed and is being used to evaluate the effects of blocking IL-1β in mouse models of cancer. This isotype of the surrogate antibody is IgG2a, which is closely related to human IgG1."}}}
{"substance": "canakinumab: high-affinity, fully human monoclonal antibody of the IgG1/k to interleukin-1β; INN number 8836", "values": [{"measurement": "Central Nervous System, incidence rate (number)", "setting": "[1]; 300 mg SC q 3 months", "value": "0.03(3) per 100 person years"}, {"measurement": "Endocrine: Adrenal, incidence rate (number)", "setting": "[1]; 300 mg SC q 3 months", "value": "0.01(1) per 100 person years"}, {"measurement": "Endocrine: Thyroid, incidence rate (number)", "setting": "[1]; 300 mg SC q 3 months", "value": "0.01(1) per 100 person years"}, {"measurement": "Gastrointenstinal: Appendiceal, incidence rate (number)", "setting": "[1]; 300 mg SC q 3 months", "value": "0.01(1) per 100 person years"}, {"measurement": "Gastrointenstinal: Biliary, incidence rate (number)", "setting": "[1]; 300 mg SC q 3 months", "value": 0, "unit": "per 100 person years"}, {"measurement": "Gastrointenstinal: Colorectal, incidence rate (number)", "setting": "[1]; 300 mg SC q 3 months", "value": "0.21(18) per 100 person years"}, {"measurement": "Gastrointenstinal: Esophageal, incidence rate (number)", "setting": "[1]; 300 mg SC q 3 months", "value": "0.08(7) per 100 person years"}, {"measurement": "Gastrointenstinal: Gastric, incidence rate (number)", "setting": "[1]; 300 mg SC q 3 months", "value": "0.06(5) per 100 person years"}, {"measurement": "Gastrointenstinal: Oral cavity/tongue, incidence rate (number)", "setting": "[1]; 300 mg SC q 3 months", "value": "0.02(2) per 100 person years"}, {"measurement": "Gastrointenstinal: Pancreatic, incidence rate (number)", "setting": "[1]; 300 mg SC q 3 months", "value": "0.06(5) per 100 person years"}, {"measurement": "Genitourinary: Bladder, incidence rate (number)", "setting": "[1]; 300 mg SC q 3 months", "value": "0.13(11) per 100 person years"}, {"measurement": "Genitourinary: Cervical, incidence rate (number)", "setting": "[1]; 300 mg SC q 3 months", "value": 0, "unit": "per 100 person years"}, {"measurement": "Genitourinary: Endometrial/Uterine, incidence rate (number)", "setting": "[1]; 300 mg SC q 3 months", "value": "0.03(3) per 100 person years"}, {"measurement": "Genitourinary: Ovarian, incidence rate (number)", "setting": "[1]; 300 mg SC q 3 months", "value": 0, "unit": "per 100 person years"}, {"measurement": "Genitourinary: Prostate, incidence rate (number)", "setting": "[1]; 300 mg SC q 3 months", "value": "0.17(15) per 100 person years"}, {"measurement": "Genitourinary: Testicular, incidence rate (number)", "setting": "[1]; 300 mg SC q 3 months", "value": 0, "unit": "per 100 person years"}, {"measurement": "Hematopoetic: Leukemia, incidence rate (number)", "setting": "[1]; 300 mg SC q 3 months", "value": "0.01(1) per 100 person years"}, {"measurement": "Hematopoetic: Lymphoma, incidence rate (number)", "setting": "[1]; 300 mg SC q 3 months", "value": "0.07(6) per 100 person years"}, {"measurement": "Hematopoetic: Multiple myeloma, incidence rate (number)", "setting": "[1]; 300 mg SC q 3 months", "value": "0.02(2) per 100 person years"}, {"measurement": "Kidney, incidence rate (number)", "setting": "[1]; 300 mg SC q 3 months", "value": "0.07(6) per 100 person years"}, {"measurement": "Liver, incidence rate (number)", "setting": "[1]; 300 mg SC q 3 months", "value": "0.03(3) per 100 person years"}, {"measurement": "Lung Cancers: Adenocarcinoma or poorly differentiated large cell carcinoma or unspecified, incidence rate (number)", "setting": "[1]; 300 mg SC q 3 months", "value": 0.12, "unit": "per 100 person years"}, {"measurement": "Lung Cancers: Pleural cancer, incidence rate (number)", "setting": "[1]; 300 mg SC q 3 months", "value": 0, "unit": "per 100 person years"}, {"measurement": "Lung Cancers: Small cell lung cancer, incidence rate (number)", "setting": "[1]; 300 mg SC q 3 months", "value": "0.01 (1) per 100 person years"}, {"measurement": "Lung Cancers: Squamous cell lung carcinoma, incidence rate (number)", "setting": "[1]; 300 mg SC q 3 months", "value": "0.03 (3) per 100 person years"}, {"measurement": "Other cancer sites: Other, incidence rate (number)", "setting": "[1]; 300 mg SC q 3 months", "value": "0.02(2) per 100 person years"}, {"measurement": "Sarcoma / Bone, incidence rate (number)", "setting": "[1]; 300 mg SC q 3 months", "value": "0.01(1) per 100 person years"}, {"measurement": "Skin: Basal cell carcinoma, incidence rate (number)", "setting": "[1]; 300 mg SC q 3 months", "value": "0.21(18) per 100 person years"}, {"measurement": "Skin: Melanoma, incidence rate (number)", "setting": "[1]; 300 mg SC q 3 months", "value": "0.06(5) per 100 person years"}, {"measurement": "Skin: Other, incidence rate (number)", "setting": "[1]; 300 mg SC q 3 months", "value": "0.02(2) per 100 person years"}, {"measurement": "Skin: Squamous cell skin cancer, incidence rate (number)", "setting": "[1]; 300 mg SC q 3 months", "value": "0.27(23) per 100 person years"}, {"measurement": "Lung Cancers: Adenocarcinoma or poorly differentiated large cell carcinoma or unspecified, incidence rate (number)", "setting": "[1]; 300 mg SC q 3 months, listed as Canakinumab", "value": "0.12 (10) per 100 person years"}, {"measurement": "total cancer mortality", "setting": "[1]; 300 mg SC, vs placebo", "value": "fell by half"}, {"measurement": "Breast, incidence rate (number)", "setting": "[1]; All Doses", "value": "0.06(16) per 100 person years"}, {"measurement": "Central Nervous System, incidence rate (number)", "setting": "[1]; All Doses", "value": "0.04(10) per 100 person years"}, {"measurement": "Endocrine: Adrenal, incidence rate (number)", "setting": "[1]; All Doses", "value": "0.01(2) per 100 person years"}, {"measurement": "Endocrine: Thyroid, incidence rate (number)", "setting": "[1]; All Doses", "value": "0.02(4) per 100 person years"}, {"measurement": "Gastrointenstinal: Appendiceal, incidence rate (number)", "setting": "[1]; All Doses", "value": "0.00(1) per 100 person years"}, {"measurement": "Gastrointenstinal: Biliary, incidence rate (number)", "setting": "[1]; All Doses", "value": "0.02(5) per 100 person years"}, {"measurement": "Gastrointenstinal: Colorectal, incidence rate (number)", "setting": "[1]; All Doses", "value": "0.21(54) per 100 person years"}, {"measurement": "Gastrointenstinal: Esophageal, incidence rate (number)", "setting": "[1]; All Doses", "value": "0.06(16) per 100 person years"}, {"measurement": "Gastrointenstinal: Gastric, incidence rate (number)", "setting": "[1]; All Doses", "value": "0.04(10) per 100 person years"}, {"measurement": "Gastrointenstinal: Oral cavity/tongue, incidence rate (number)", "setting": "[1]; All Doses", "value": "0.03(8) per 100 person years"}, {"measurement": "Gastrointenstinal: Pancreatic, incidence rate (number)", "setting": "[1]; All Doses", "value": "0.05(13) per 100 person years"}, {"measurement": "Genitourinary: Bladder, incidence rate (number)", "setting": "[1]; All Doses", "value": "0.10(26) per 100 person years"}, {"measurement": "Genitourinary: Cervical, incidence rate (number)", "setting": "[1]; All Doses", "value": "0.00(1) per 100 person years"}, {"measurement": "Genitourinary: Endometrial/Uterine, incidence rate (number)", "setting": "[1]; All Doses", "value": "0.02(5) per 100 person years"}, {"measurement": "Genitourinary: Ovarian, incidence rate (number)", "setting": "[1]; All Doses", "value": "0.00(1) per 100 person years"}, {"measurement": "Genitourinary: Prostate, incidence rate (number)", "setting": "[1]; All Doses", "value": "0.17(44) per 100 person years"}, {"measurement": "Genitourinary: Testicular, incidence rate (number)", "setting": "[1]; All Doses", "value": "0.00(1) per 100 person years"}, {"measurement": "Hematopoetic: Leukemia, incidence rate (number)", "setting": "[1]; All Doses", "value": "0.02(4) per 100 person years"}, {"measurement": "Hematopoetic: Lymphoma, incidence rate (number)", "setting": "[1]; All Doses", "value": "0.05(13) per 100 person years"}, {"measurement": "Hematopoetic: Multiple myeloma, incidence rate (number)", "setting": "[1]; All Doses", "value": "0.01(2) per 100 person years"}, {"measurement": "Kidney, incidence rate (number)", "setting": "[1]; All Doses", "value": "0.09(22) per 100 person years"}, {"measurement": "Liver, incidence rate (number)", "setting": "[1]; All Doses", "value": "0.04(11) per 100 person years"}, {"measurement": "Lung Cancers: Adenocarcinoma or poorly differentiated large cell carcinoma or unspecified, incidence rate (number)", "setting": "[1]; All Doses", "value": "0.23 (59) per 100 person years"}, {"measurement": "Lung Cancers: Pleural cancer, incidence rate (number)", "setting": "[1]; All Doses", "value": 0, "unit": "per 100 person years"}, {"measurement": "Lung Cancers: Small cell lung cancer, incidence rate (number)", "setting": "[1]; All Doses", "value": "0.01 (3) per 100 person years"}, {"measurement": "Lung Cancers: Squamous cell lung carcinoma, incidence rate (number)", "setting": "[1]; All Doses", "value": "0.02 (6) per 100 person years"}, {"measurement": "Other cancer sites: Other, incidence rate (number)", "setting": "[1]; All Doses", "value": "0.05(13) per 100 person years"}, {"measurement": "Sarcoma / Bone, incidence rate (number)", "setting": "[1]; All Doses", "value": "0.01(2) per 100 person years"}, {"measurement": "Skin: Basal cell carcinoma, incidence rate (number)", "setting": "[1]; All Doses", "value": "0.26(65) per 100 person years"}, {"measurement": "Skin: Melanoma, incidence rate (number)", "setting": "[1]; All Doses", "value": "0.06(16) per 100 person years"}, {"measurement": "Skin: Other, incidence rate (number)", "setting": "[1]; All Doses", "value": "0.03(7) per 100 person years"}, {"measurement": "Skin: Squamous cell skin cancer, incidence rate (number)", "setting": "[1]; All Doses", "value": "0.17(44) per 100 person years"}, {"measurement": "share of all cancers that were lung cancers", "setting": "[1]; among those assigned to canakinumab (placebo 26.0%)", "value": 16, "unit": "%"}, {"measurement": "share of cancer deaths that were lung cancers", "setting": "[1]; among those assigned to canakinumab (placebo 47%)", "value": 34, "unit": "%"}, {"measurement": "cross-reactivity with mouse IL-1β", "setting": "mouse IL-1β", "value": "does not cross-react"}]}
